biological target: human TRPA1 (Homo sapiens (Human), UniProt O75762); experiment: hTRPA1 CHO Ca2+ FLIPR assay (block of cinnamaldehyde induced calcium influx); type: cell-based; settings: CHO cells expressing TRPA1; 75 uM cinnamaldehyde; Hill coefficient fixed to 1.5; read-out: hTRPA1 (hTRPA1 CHO Ca2+ MAX EVO (IC50))
Method: CHO cells expressing TRPA1 were plated into 384-well plates, incubated overnight at 37° C., and loaded with BD calcium indicator dye for 1 hr at 37° C. followed by 15 minutes at room temperature. The assay buffer was Hank's Balanced Salt Solution (HBSS) containing 20 mM HEPES (pH readjusted to 7.4) along with 0.02% BSA.
Following dye load and plate cool down, compounds were added to the cells using FLIPR Tetra. Plates were then incubated with compounds for 20 minutes at room temperature prior to adding agonist.
The IC50 results were fit with a standard Hill function, keeping the Hill coefficient (n) fixed to 1.5. Fixing the Hill coefficient will generally reduce variability of the IC50 determination. The IC50 results were individually examined to make sure the MIN and MAX points were set correctly prior to validation of the results.

Sequence of human TRPA1 (O75762 whole entry): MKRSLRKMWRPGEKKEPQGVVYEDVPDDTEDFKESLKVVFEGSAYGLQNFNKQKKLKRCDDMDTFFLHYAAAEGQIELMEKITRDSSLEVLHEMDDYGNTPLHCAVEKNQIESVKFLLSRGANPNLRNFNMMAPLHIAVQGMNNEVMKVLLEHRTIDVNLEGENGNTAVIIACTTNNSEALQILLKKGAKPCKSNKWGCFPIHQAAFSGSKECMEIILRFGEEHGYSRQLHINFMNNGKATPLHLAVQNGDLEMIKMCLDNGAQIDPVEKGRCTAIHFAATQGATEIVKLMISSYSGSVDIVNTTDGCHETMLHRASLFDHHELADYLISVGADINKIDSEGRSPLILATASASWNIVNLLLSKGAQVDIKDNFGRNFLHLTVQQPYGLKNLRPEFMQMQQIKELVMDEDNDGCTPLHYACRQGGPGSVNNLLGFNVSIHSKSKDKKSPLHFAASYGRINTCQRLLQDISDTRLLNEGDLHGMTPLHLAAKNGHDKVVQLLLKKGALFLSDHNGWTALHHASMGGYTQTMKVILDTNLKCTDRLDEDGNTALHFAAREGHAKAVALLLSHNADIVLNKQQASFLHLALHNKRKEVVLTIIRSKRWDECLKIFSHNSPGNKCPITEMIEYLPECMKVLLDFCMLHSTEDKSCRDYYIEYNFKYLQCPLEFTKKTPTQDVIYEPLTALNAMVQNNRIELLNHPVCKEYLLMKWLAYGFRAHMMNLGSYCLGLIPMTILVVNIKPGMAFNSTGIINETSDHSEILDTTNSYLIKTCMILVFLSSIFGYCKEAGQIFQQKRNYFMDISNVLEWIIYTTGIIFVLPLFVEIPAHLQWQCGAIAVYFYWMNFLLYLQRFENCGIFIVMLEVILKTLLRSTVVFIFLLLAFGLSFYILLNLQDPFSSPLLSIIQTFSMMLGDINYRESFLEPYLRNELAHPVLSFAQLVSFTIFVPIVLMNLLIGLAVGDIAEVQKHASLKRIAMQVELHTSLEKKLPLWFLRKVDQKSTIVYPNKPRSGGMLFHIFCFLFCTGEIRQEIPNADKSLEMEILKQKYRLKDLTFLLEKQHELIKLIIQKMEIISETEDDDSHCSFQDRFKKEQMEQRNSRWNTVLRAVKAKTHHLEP

SMILES	IC50
Cn1cnc2ncn(Cc3nn(CCc4ccc(C(F)(F)F)cc4)c(=O)o3)c(=O)c21 [compound 9, 5-((7-methyl-6-oxo-6H-purin-1(7H)-yl)methyl)-3-(4-(trifluoromethyl)phenethyl)-1,3,4-oxadiazol-2(3H)-one]	582 nM
COc1ccc(CCn2nc(Cn3cnc4ncn(C)c4c3=O)oc2=O)cc1 [compound 11, 3-(4-methoxyphenethyl)-5-((7-methyl-6-oxo-6H-purin-1(7H)-yl)methyl)-1,3,4-oxadiazol-2(3H)-one]	278 nM
Cc1nc(C)n2ncn(Cc3nn(CCc4ccc(Cl)cc4)c(=O)o3)c(=O)c12 [compound 13, 3-(4-chlorophenethyl)-5-((5,7-dimethyl-4-oxoimidazo[1,5-f][1,2,4]triazin-3(4H)-yl)methyl)-1,3,4-oxadiazol-2(3H)-one]	265 nM
Cn1cnc2ncn(Cc3nn(C[C@@H](F)c4ccc(Cl)cc4)c(=O)o3)c(=O)c21 [compound 15, (S)-3-(2-(4-chlorophenyl)-2-fluoroethyl)-5-((7-methyl-6-oxo-6H-purin-1(7H)-yl)methyl)-1,3,4-oxadiazol-2(3H)-one]	3830 nM
Cn1cnc2ncn(Cc3nn(CCc4ccc(C5CC5)cc4)c(=O)o3)c(=O)c21 [compound 16, 3-(4-cyclopropylphenethyl)-5-((7-methyl-6-oxo-6H-purin-1(7H)-yl)methyl)-1,3,4-oxadiazol-2(3H)-one]	356 nM
CN(C)c1ccc(CCn2nc(Cn3cnc4ncn(C)c4c3=O)oc2=O)cc1 [compound 17, 3-(4-(dimethylamino)phenethyl)-5-((7-methyl-6-oxo-6H-purin-1(7H)-yl)methyl)-1,3,4-oxadiazol-2(3H)-one]	164 nM
Cn1cnc2ncn(Cc3nn(CCc4ccc(C(F)F)cc4)c(=O)o3)c(=O)c21 [compound 18, 3-(4-(difluoromethyl)phenethyl)-5-((7-methyl-6-oxo-6H-purin-1(7H)-yl)methyl)-1,3,4-oxadiazol-2(3H)-one]	509 nM
C[C@@H](Cn1nc(Cn2cnc3ncn(C)c3c2=O)oc1=O)c1ccc(Cl)cc1 [compound 20, (R)-3-(2-(4-chlorophenyl)propyl)-5-((7-methyl-6-oxo-6H-purin-1(7H)-yl)methyl)-1,3,4-oxadiazol-2(3H)-one]	812 nM
Cn1cnc2ncn(Cc3nn(CCc4ccc(Cl)s4)c(=O)o3)c(=O)c21 [compound 21, 3-(2-(5-chlorothiophen-2-yl)ethyl)-5-((7-methyl-6-oxo-6H-purin-1(7H)-yl)methyl)-1,3,4-oxadiazol-2(3H)-one]	286 nM
Cn1cnc2ncn(Cc3nn(CCc4cccc(-c5ccccc5)c4)c(=O)o3)c(=O)c21 [compound 24, 7-methyl-1-([5-oxo-4-[2-(3-phenylphenyl)ethyl]-4,5-dihydro-1,3,4-oxadiazol-2-yl]methyl)-6,7-dihydro-1H-purin-6-one]	338 nM
Cn1cnc2ncn(Cc3nn(CCc4ccc(Br)c(Cl)c4)c(=O)o3)c(=O)c21 [compound 25, 1-([4-[2-(4-bromo-3-chlorophenyl)ethyl]-5-oxo-4,5-dihydro-1,3,4-oxadiazol-2-yl]methyl)-7-methyl-6,7-dihydro-1H-purin-6-one]	132 nM
Cn1cnc2ncn(Cc3nn(CCc4ccc(Cl)cc4)c(=O)o3)c2c1=O [compound 26, 7-([4-[2-(4-chlorophenyl)ethyl]-5-oxo-4,5-dihydro-1,3,4-oxadiazol-2-yl]methyl)-1-methyl-6,7-dihydro-1H-purin-6-one]	737 nM
Cc1ccc(CCn2nc(Cn3cnc4ncn(C)c4c3=O)oc2=O)cc1 [compound 31, 5-[(7-methyl-6-oxo-purin-1-yl)methyl]-3-[2-(p-tolyl)ethyl]-1,3,4-oxadiazol-2-one]	126 nM
Cn1cnc2ncn(Cc3nn(CCc4ccc5ccc(C#N)cc5c4)c(=O)o3)c(=O)c21 [compound 36, 7-[2-[5-[(7-methyl-6-oxo-purin-1-yl)methyl]-2-oxo-1,3,4-oxadiazol-3-yl]ethyl]naphthalene-2-carbonitrile]	120 nM
Cn1cnc2ncn(Cc3nn(C[C@@H](F)c4ccc5ccccc5c4)c(=O)o3)c(=O)c21 [compound 37, 5-[(7-methyl-6-oxo-purin-1-yl)methyl]-3-[(2S)-2-fluoro-2-(2-naphthyl)ethyl]-1,3,4-oxadiazol-2-one]	332 nM
Cc1cc(CCn2nc(Cn3cnc4ncn(C)c4c3=O)oc2=O)ccc1Cl [compound 39, 3-(4-chloro-3-methylphenethyl)-5-((7-methyl-6-oxo-6H-purin-1(7H)-yl)methyl)-1,3,4-oxadiazol-2(3H)-one]	113 nM
Cn1cnc2ncn(Cc3nn(CCc4ccc(Cl)cc4F)c(=O)o3)c(=O)c21 [compound 41, 3-(4-chloro-2-fluorophenethyl)-5-((7-methyl-6-oxo-6H-purin-1(7H)-yl)methyl)-1,3,4-oxadiazol-2(3H)-one]	492 nM
Cn1cnc2ncn(Cc3nn(CCc4ccc(Cl)c(-c5ccccc5)c4)c(=O)o3)c(=O)c21 [compound 42, 3-(2-(6-chlorobiphenyl-3-yl)ethyl)-5-((7-methyl-6-oxo-6H-purin-1(7H)-yl)methyl)-1,3,4-oxadiazol-2(3H)-one]	98 nM
Cn1cnc2ncn(Cc3nn(C[C@@H](F)c4ccc(Br)cc4)c(=O)o3)c(=O)c21 [compound 45, (S)-3-(2-(4-bromophenyl)-2-fluoroethyl)-5-((7-methyl-6-oxo-6H-purin-1(7H)-yl)methyl)-1,3,4-oxadiazol-2(3H)-one]	1200 nM
Cc1ncnc2ncn(Cc3nn(CCc4ccc(Cl)cc4)c(=O)o3)c(=O)c12 [compound 46, 3-(4-chlorophenethyl)-5-((5-methyl-4-oxopyrimido[4,5-d]pyrimidin-3(4H)-yl)methyl)-1,3,4-oxadiazol-2(3H)-one]	107 nM

More lines, now with the values ahead:

IC50	SMILES
86 nM	Cn1cnc2ncn(Cc3nn(CCc4ccc(OC(F)(F)F)cc4)c(=O)o3)c(=O)c21 [compound 10, 5-((7-methyl-6-oxo-6H-purin-1(7H)-yl)methyl)-3-(4-(trifluoromethoxy)phenethyl)-1,3,4-oxadiazol-2(3H)-one]
41 nM	Cn1cnc2ncn(Cc3nn(CCc4ccc5ccccc5c4)c(=O)o3)c(=O)c21 [compound 12, 5-((7-methyl-6-oxo-6H-purin-1(7H)-yl)methyl)-3-(2-(naphthalen-2-yl)ethyl)-1,3,4-oxadiazol-2(3H)-one]
34 nM	Cn1cnc2ncn(Cc3nn(C[C@H](F)c4ccc(Cl)cc4)c(=O)o3)c(=O)c21 [compound 14, (R)-3-(2-(4-chlorophenyl)-2-fluoroethyl)-5-((7-methyl-6-oxo-6H-purin-1(7H)-yl)methyl)-1,3,4-oxadiazol-2(3H)-one]
34 nM	C[C@H](Cn1nc(Cn2cnc3ncn(C)c3c2=O)oc1=O)c1ccc(Cl)cc1 [compound 19, (S)-3-(2-(4-chlorophenyl)propyl)-5-((7-methyl-6-oxo-6H-purin-1(7H)-yl)methyl)-1,3,4-oxadiazol-2(3H)-one]
14 nM	Cn1cnc2c(C#N)nn(Cc3nn(CCc4ccc(Cl)cc4)c(=O)o3)c2c1=O [compound 22, 1-([4-[2-(4-chlorophenyl)ethyl]-5-oxo-4,5-dihydro-1,3,4-oxadiazol-2-yl]methyl)-6-methyl-7-oxo-1H,6H,7H-pyrazolo[4,3-d]pyrimidine-3-carbonitrile]
49 nM	Cc1cnnc2ncn(Cc3nn(CCc4ccc(Cl)cc4)c(=O)o3)c(=O)c12 [compound 27, 3-(4-chlorophenethyl)-5-((4-methyl-5-oxopyridazino[3,4-d]pyrimidin-6(5H)-yl)methyl)-1,3,4-oxadiazol-2(3H)-one]
9 nM	Cc1cc(C#N)nc2ncn(Cc3nn(CCc4ccc(Cl)cc4)c(=O)o3)c(=O)c12 [compound 28, 3-((4-(4-chlorophenethyl)-5-oxo-4,5-dihydro-1,3,4-oxadiazol-2-yl)methyl)-5-methyl-4-oxo-3,4-dihydropyrido[2,3-d]pyrimidine-7-carbonitrile]
87 nM	Cn1ccc2cc(CCn3nc(Cn4cnc5ncn(C)c5c4=O)oc3=O)ccc21 [compound 29, 3-[2-(1-methylindol-5-yl)ethyl]-5-[(7-methyl-6-oxo-purin-1-yl)methyl]-1,3,4-oxadiazol-2-one]
26.6 nM	Cn1cnc2c(C#N)nn(Cc3nc(CCc4ccc(Cl)cc4)no3)c2c1=O [compound 30, 1-[[3-[2-(4-chlorophenyl)ethyl]-1,2,4-oxadiazol-5-yl]methyl]-6-methyl-7-oxo-pyrazolo[4,3-d]pyrimidine-3-carbonitrile]
36 nM	Cn1cnc2c(C#N)nn(Cc3nn(CCc4ccc(OC(F)F)cc4)c(=O)o3)c2c1=O [compound 32, 1-[(4-[2-[4-(difluoromethoxy)phenyl]ethyl]-5-oxo-4,5-dihydro-1,3,4-oxadiazol-2-yl)methyl]-6-methyl-7-oxo-1H,6H,7H-pyrazolo[4,3-d]pyrimidine-3-carbonitrile]
96 nM	Cn1cnc2cnn(Cc3nn(CCc4ccc(Cl)cc4)c(=O)o3)c(=O)c21 [compound 35, 3-[2-(4-chlorophenyl)ethyl]-5-[(3-methyl-4-oxo-imidazo[4,5-d]pyridazin-5-yl)methyl]-1,3,4-oxadiazol-2-one]
18 nM	Cc1cnc(Cl)c2ncn(Cc3nn(CCc4ccc(Cl)cc4)c(=O)o3)c(=O)c12 [compound 40, 5-((8-chloro-5-methyl-4-oxopyrido[3,4-d]pyrimidin-3(4H)-yl)methyl)-3-(4-chlorophenethyl)-1,3,4-oxadiazol-2(3H)-one]
18 nM	Cc1cnc(C#N)c2ncn(Cc3nn(CCc4ccc(Cl)cc4)c(=O)o3)c(=O)c12 [compound 43]
10 nM	Cn1cnc2ncn(Cc3nn(C[C@H](F)c4ccc(Br)cc4)c(=O)o3)c(=O)c21 [compound 44, (R)-3-(2-(4-bromophenyl)-2-fluoroethyl)-5-((7-methyl-6-oxo-6H-purin-1(7H)-yl)methyl)-1,3,4-oxadiazol-2(3H)-one]

From patent publication US10913742B2, “Oxadiazolones as transient receptor potential channel inhibitors” (Genentech, Inc., priority 2017, dated 2021)
